In publication PMC12454493, “Insight on novel sulfamoylphenyl pyrazole derivatives as anticancer carbonic anhydrase inhibitors” (Molecular Diversity, 2024):

How the values were obtained:
hCA IX = hCA IX (Homo sapiens, UniProt Q16790); assay: CA inhibitory activity, spectrophotometric p-NPA assay; type: biochemical; conditions: for IC50: p-NPA substrate, pH 7.5, 25 °C, triplicate, read-out: IC50 (µM) ± SD hCA IX
PC-3 = assay: NCI-60 one-dose SRB screen (Prostate Cancer); type: cell-based; conditions: Homo sapiens, single dose 10 µM, 48 h, read-out: Growth inhibition percent (GI %)
DU-145 = assay: NCI-60 one-dose SRB screen (Prostate Cancer); type: cell-based; conditions: Homo sapiens, single dose 10 µM, 48 h, read-out: Growth inhibition percent (GI %)
HT29 = assay: NCI-60 one-dose SRB screen (Colon Cancer); type: cell-based; conditions: Homo sapiens, HT-29, single dose 10 µM, 48 h, read-out: Growth inhibition percent (GI %)
HCT-15 = assay: NCI-60 one-dose SRB screen (Colon Cancer); type: cell-based; conditions: Homo sapiens, single dose 10 µM, 48 h, read-out: Growth inhibition percent (GI %)
SW-620 = assay: NCI-60 one-dose SRB screen (Colon Cancer); type: cell-based; conditions: Homo sapiens, single dose 10 µM, 48 h, read-out: Growth inhibition percent (GI %)
HCC-2998 = assay: NCI-60 one-dose SRB screen (Colon Cancer); type: cell-based; conditions: Homo sapiens, single dose 10 µM, 48 h, read-out: Growth inhibition percent (GI %)
COLO 205 = assay: NCI-60 one-dose SRB screen (Colon Cancer); type: cell-based; conditions: Homo sapiens, single dose 10 µM, 48 h, read-out: Growth inhibition percent (GI %)
HCT-116 = assay: NCI-60 one-dose SRB screen (Colon Cancer); type: cell-based; conditions: Homo sapiens, single dose 10 µM, 48 h, read-out: Growth inhibition percent (GI %)
KM12 = assay: NCI-60 one-dose SRB screen (Colon Cancer); type: cell-based; conditions: Homo sapiens, single dose 10 µM, 48 h, read-out: Growth inhibition percent (GI %)
OVCAR-3 = assay: NCI-60 one-dose SRB screen (Ovarian cancer); type: cell-based; conditions: Homo sapiens, single dose 10 µM, 48 h, read-out: Growth inhibition percent (GI %)
OVCAR-5 = assay: NCI-60 one-dose SRB screen (Ovarian cancer); type: cell-based; conditions: Homo sapiens, single dose 10 µM, 48 h, read-out: Growth inhibition percent (GI %)
IGROV1 = assay: NCI-60 one-dose SRB screen (Ovarian cancer); type: cell-based; conditions: Homo sapiens, IGROV-1, single dose 10 µM, 48 h, read-out: Growth inhibition percent (GI %)
SK-OV-3 = assay: NCI-60 one-dose SRB screen (Ovarian cancer); type: cell-based; conditions: Homo sapiens, single dose 10 µM, 48 h, read-out: Growth inhibition percent (GI %)
OVCAR-4 = assay: NCI-60 one-dose SRB screen (Ovarian cancer); type: cell-based; conditions: Homo sapiens, single dose 10 µM, 48 h, read-out: Growth inhibition percent (GI %)
OVCAR-8 = assay: NCI-60 one-dose SRB screen (Ovarian cancer); type: cell-based; conditions: Homo sapiens, single dose 10 µM, 48 h, read-out: Growth inhibition percent (GI %)
NCI/ADR-RES = assay: NCI-60 one-dose SRB screen (Ovarian cancer); type: cell-based; conditions: Homo sapiens, single dose 10 µM, 48 h, read-out: Growth inhibition percent (GI %)
HL-60(TB) = assay: NCI-60 one-dose SRB screen (Leukemia); type: cell-based; conditions: Homo sapiens, single dose 10 µM, 48 h, read-out: Growth inhibition percent (GI %)
CCRF-CEM = assay: NCI-60 one-dose SRB screen (Leukemia); type: cell-based; conditions: Homo sapiens, single dose 10 µM, 48 h, read-out: Growth inhibition percent (GI %)
MOLT-4 = assay: NCI-60 one-dose SRB screen (Leukemia); type: cell-based; conditions: Homo sapiens, single dose 10 µM, 48 h, read-out: Growth inhibition percent (GI %)
RPMI-8226 = assay: NCI-60 one-dose SRB screen (Leukemia); type: cell-based; conditions: Homo sapiens, single dose 10 µM, 48 h, read-out: Growth inhibition percent (GI %)
K-562 = assay: NCI-60 one-dose SRB screen (Leukemia); type: cell-based; conditions: Homo sapiens, K562, single dose 10 µM, 48 h, read-out: Growth inhibition percent (GI %)
SR = assay: NCI-60 one-dose SRB screen (Leukemia); type: cell-based; conditions: Homo sapiens, single dose 10 µM, 48 h, read-out: Growth inhibition percent (GI %)
HS 578T = assay: NCI-60 one-dose SRB screen (Breast Cancer); type: cell-based; conditions: Homo sapiens, single dose 10 µM, 48 h, read-out: Growth inhibition percent (GI %)
T-47D = assay: NCI-60 one-dose SRB screen (Breast Cancer); type: cell-based; conditions: Homo sapiens, T47D, single dose 10 µM, 48 h, read-out: Growth inhibition percent (GI %)
MDA-MB-231/ATCC = assay: NCI-60 one-dose SRB screen (Breast Cancer); type: cell-based; conditions: Homo sapiens, single dose 10 µM, 48 h, read-out: Growth inhibition percent (GI %)
MCF-7 = assay: NCI-60 one-dose SRB screen (Breast Cancer); type: cell-based; conditions: Homo sapiens, MCF7, single dose 10 µM, 48 h, read-out: Growth inhibition percent (GI %)
EKVX = assay: NCI-60 one-dose SRB screen (Non-Small Cell Lung Cancer); type: cell-based; conditions: Homo sapiens, single dose 10 µM, 48 h, read-out: Growth inhibition percent (GI %)
NCI-H460 = assay: as above; type: cell-based; conditions: Homo sapiens, single dose 10 µM, 48 h, read-out: Growth inhibition percent (GI %)
NCI-H522 = assay: as above; type: cell-based; conditions: Homo sapiens, single dose 10 µM, 48 h, read-out: Growth inhibition percent (GI %)
NCI-H23 = assay: as above; type: cell-based; conditions: Homo sapiens, single dose 10 µM, 48 h, read-out: Growth inhibition percent (GI %)
A549/ATCC = assay: as above; type: cell-based; conditions: Homo sapiens, single dose 10 µM, 48 h, read-out: Growth inhibition percent (GI %)
HOP-62 = assay: as above; type: cell-based; conditions: Homo sapiens, single dose 10 µM, 48 h, read-out: Growth inhibition percent (GI %)
NCI-H322M = assay: as above; type: cell-based; conditions: Homo sapiens, single dose 10 µM, 48 h, read-out: Growth inhibition percent (GI %)
NCI-H226 = assay: as above; type: cell-based; conditions: Homo sapiens, single dose 10 µM, 48 h, read-out: Growth inhibition percent (GI %)
HOP-92 = assay: as above; type: cell-based; conditions: Homo sapiens, single dose 10 µM, 48 h, read-out: Growth inhibition percent (GI %)
UACC-62 = assay: NCI-60 one-dose SRB screen (Melanoma); type: cell-based; conditions: Homo sapiens, single dose 10 µM, 48 h, read-out: Growth inhibition percent (GI %)
MALME-3M = assay: NCI-60 one-dose SRB screen (Melanoma); type: cell-based; conditions: Homo sapiens, single dose 10 µM, 48 h, read-out: Growth inhibition percent (GI %)
M14 = assay: NCI-60 one-dose SRB screen (Melanoma); type: cell-based; conditions: Homo sapiens, single dose 10 µM, 48 h, read-out: Growth inhibition percent (GI %)
LOX IMVI = assay: NCI-60 one-dose SRB screen (Melanoma); type: cell-based; conditions: Homo sapiens, single dose 10 µM, 48 h, read-out: Growth inhibition percent (GI %)
SK-MEL-5 = assay: NCI-60 one-dose SRB screen (Melanoma); type: cell-based; conditions: Homo sapiens, single dose 10 µM, 48 h, read-out: Growth inhibition percent (GI %)
UACC-257 = assay: NCI-60 one-dose SRB screen (Melanoma); type: cell-based; conditions: Homo sapiens, single dose 10 µM, 48 h, read-out: Growth inhibition percent (GI %)
SK-MEL-28 = assay: NCI-60 one-dose SRB screen (Melanoma); type: cell-based; conditions: Homo sapiens, single dose 10 µM, 48 h, read-out: Growth inhibition percent (GI %)
SK-MEL-2 = assay: NCI-60 one-dose SRB screen (Melanoma); type: cell-based; conditions: Homo sapiens, single dose 10 µM, 48 h, read-out: Growth inhibition percent (GI %)
MDA-MB-435 = assay: NCI-60 one-dose SRB screen (Melanoma); type: cell-based; conditions: Homo sapiens, single dose 10 µM, 48 h, read-out: Growth inhibition percent (GI %)

CCOC(=O)c1ccc(NC(=O)COC(=O)c2cn(-c3ccc(S(N)(=O)=O)cc3)nc2-c2ccc(S(C)(=O)=O)cc2)cc1 [Compound 5e, 2-[(4-(Ethoxycarbonyl)phenyl)amino]-2-oxoethyl 3-(4-(methylsulfonyl)phenyl)-1-(4-sulfamoylphenyl)-1H-pyrazole-4-carboxylate]
Ki (hCA IX): 40 nM
IC50 (hCA IX): 0.04 ± 0.002 µM
inhibition at 10 µM (PC-3): < 5%
inhibition at 10 µM (DU-145): < 5%
inhibition at 10 µM (HT29): < 5%
inhibition at 10 µM (HCT-15): < 5%
inhibition at 10 µM (SW-620): < 5%
inhibition at 10 µM (HCC-2998): < 5%
inhibition at 10 µM (COLO 205): < 5%
inhibition at 10 µM (HCT-116): < 5%
inhibition at 10 µM (KM12): < 5%
inhibition at 10 µM (OVCAR-3): < 5%
inhibition at 10 µM (OVCAR-5): 7.15%
inhibition at 10 µM (IGROV1): < 5%
inhibition at 10 µM (SK-OV-3): < 5%
inhibition at 10 µM (OVCAR-4): 12.3%
inhibition at 10 µM (OVCAR-8): < 5%
inhibition at 10 µM (NCI/ADR-RES): < 5%
inhibition at 10 µM (HL-60(TB)): 6.26%
inhibition at 10 µM (CCRF-CEM): 9.47%
inhibition at 10 µM (MOLT-4): < 5%
inhibition at 10 µM (RPMI-8226): 6.03%
inhibition at 10 µM (K-562): 9.58%
inhibition at 10 µM (SR): 22.1%
inhibition at 10 µM (HS 578T): 23.7%
inhibition at 10 µM (T-47D): 19.1%
inhibition at 10 µM (MDA-MB-231/ATCC): < 5%
inhibition at 10 µM (MCF-7): 6.56%
melting point: 127 to 130 °C
inhibition at 10 µM (EKVX): < 5%
inhibition at 10 µM (NCI-H460): < 5%
inhibition at 10 µM (NCI-H522): 13.5%
inhibition at 10 µM (NCI-H23): 8.79%
inhibition at 10 µM (A549/ATCC): < 5%
inhibition at 10 µM (HOP-62): < 5%
inhibition at 10 µM (NCI-H322M): < 5%
inhibition at 10 µM (NCI-H226): < 5%
inhibition at 10 µM (HOP-92): < 5%
inhibition at 10 µM (UACC-62): 15.8%
inhibition at 10 µM (MALME-3M): < 5%
inhibition at 10 µM (M14): < 5%
inhibition at 10 µM (LOX IMVI): 11.6%
inhibition at 10 µM (SK-MEL-5): < 5%
inhibition at 10 µM (UACC-257): < 5%
inhibition at 10 µM (SK-MEL-28): < 5%
inhibition at 10 µM (SK-MEL-2): < 5%
inhibition at 10 µM (MDA-MB-435): < 5%

NS(=O)(=O)c1ccc(-n2cc(C(=O)OCC(=O)Nc3nnc(S(N)(=O)=O)s3)c(-c3ccccc3)n2)cc1 [Compound 6a, 2-Oxo-2-[(5-sulfamoyl-1,3,4-thiadiazol-2-yl)amino] ethyl 3-phenyl-1-(4-sulfamoylphenyl)-1H-pyrazole-4-carboxylate]
IC50 (hCA IX): 0.591 ± 0.028 µM
inhibition at 10 µM (PC-3): < 5%
inhibition at 10 µM (DU-145): < 5%
inhibition at 10 µM (HT29): < 5%
inhibition at 10 µM (HCT-15): < 5%
inhibition at 10 µM (SW-620): < 5%
inhibition at 10 µM (HCC-2998): < 5%
inhibition at 10 µM (COLO 205): < 5%
inhibition at 10 µM (HCT-116): < 5%
inhibition at 10 µM (KM12): < 5%
inhibition at 10 µM (OVCAR-3): < 5%
inhibition at 10 µM (OVCAR-5): < 5%
inhibition at 10 µM (IGROV1): < 5%
inhibition at 10 µM (SK-OV-3): 54.6%
inhibition at 10 µM (OVCAR-4): < 5%
inhibition at 10 µM (OVCAR-8): < 5%
inhibition at 10 µM (NCI/ADR-RES): < 5%
inhibition at 10 µM (HL-60(TB)): < 5%
inhibition at 10 µM (CCRF-CEM): < 5%
inhibition at 10 µM (MOLT-4): < 5%
inhibition at 10 µM (RPMI-8226): < 5%
inhibition at 10 µM (K-562): < 5%
inhibition at 10 µM (SR): 17%
inhibition at 10 µM (HS 578T): 5.52%
inhibition at 10 µM (T-47D): < 5%
inhibition at 10 µM (MDA-MB-231/ATCC): 9.95%
inhibition at 10 µM (MCF-7): 22.6%
melting point: 135 to 137 °C
inhibition at 10 µM (EKVX): 9.86%
inhibition at 10 µM (NCI-H460): < 5%
inhibition at 10 µM (NCI-H522): 13.3%
inhibition at 10 µM (NCI-H23): < 5%
inhibition at 10 µM (A549/ATCC): < 5%
inhibition at 10 µM (HOP-62): < 5%
inhibition at 10 µM (NCI-H322M): < 5%
inhibition at 10 µM (NCI-H226): 16.2%
inhibition at 10 µM (HOP-92): < 5%
inhibition at 10 µM (UACC-62): 17.7%
inhibition at 10 µM (MALME-3M): < 5%
inhibition at 10 µM (M14): < 5%
inhibition at 10 µM (LOX IMVI): 8.67%
inhibition at 10 µM (SK-MEL-5): < 5%
inhibition at 10 µM (UACC-257): < 5%
inhibition at 10 µM (SK-MEL-28): < 5%
inhibition at 10 µM (SK-MEL-2): < 5%
inhibition at 10 µM (MDA-MB-435): < 5%
